Source: patent publication US20170209499A1, “Propolis and Extracts Thereof for the Treatment of Skin Cancers and Improvement of Skin Health” (Manuka Health New Zealand Limited, priority 2014, published 2017)

How the values were obtained:
COX-2 = biological target: T1, COX-2 (Rattus norvegicus, UniProt P35355); assay: Anti-inflammatory assay, LPS-activated rat blood neutrophils, PGE2 ELISA (COX-2 marker); format: cell-based; settings: 3 hours
T1 construct: endogenous in cells
T1 sequence (P35355 18-604): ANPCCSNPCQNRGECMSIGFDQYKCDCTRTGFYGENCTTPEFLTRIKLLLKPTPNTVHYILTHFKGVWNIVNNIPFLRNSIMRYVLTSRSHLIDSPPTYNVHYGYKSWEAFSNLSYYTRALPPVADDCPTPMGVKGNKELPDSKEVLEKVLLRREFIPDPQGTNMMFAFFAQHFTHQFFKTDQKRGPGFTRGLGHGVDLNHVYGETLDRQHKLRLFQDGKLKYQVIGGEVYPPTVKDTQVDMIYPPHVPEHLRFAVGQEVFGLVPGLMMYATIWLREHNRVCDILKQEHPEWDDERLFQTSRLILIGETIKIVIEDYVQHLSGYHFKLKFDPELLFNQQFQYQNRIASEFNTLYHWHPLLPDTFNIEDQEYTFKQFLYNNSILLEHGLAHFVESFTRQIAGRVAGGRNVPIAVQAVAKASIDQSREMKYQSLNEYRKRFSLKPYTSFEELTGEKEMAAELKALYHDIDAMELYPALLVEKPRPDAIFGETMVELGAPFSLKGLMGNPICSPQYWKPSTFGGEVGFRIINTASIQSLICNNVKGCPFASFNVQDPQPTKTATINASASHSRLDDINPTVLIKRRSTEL
Procedure: (§1) The proliferation of cancers can follow an inflammatory pathway. […] This study was performed using LPS-activated neutrophils from rat blood to determine the inhibition of the inflammatory mediators cyclooxygenase enzymes COX I and COX II.
(§2) Anti-inflammatory assays were carried out as follows. Neutrophils from rat blood were cultured in the presence of the test sample or positive control before being activated into an inflammatory response through the use of lipopolysaccharide (LPS). The incubation period before addition of LPS was 20 minutes. The cell culture supernatants were then tested by ELISA for the presence of the cyclooxygenase COX-1 and COX-2 marker compounds thromboxane TXB2 and prostaglandin PGE2, respectively. […] The test samples were used at 50 μg and 200 μg of solids/ml, and were tested in triplicate. The incubation period for TXB2 and PGE2 was 3 hours.

COX-1 = biological target: T2, COX-1 (Rattus norvegicus, UniProt Q63921); assay: Anti-inflammatory assay, LPS-activated rat blood neutrophils, TXB2 ELISA (COX-1 marker); format: cell-based; settings: 3 hours
T2 construct: endogenous in cells
T2 sequence (Q63921 27-602): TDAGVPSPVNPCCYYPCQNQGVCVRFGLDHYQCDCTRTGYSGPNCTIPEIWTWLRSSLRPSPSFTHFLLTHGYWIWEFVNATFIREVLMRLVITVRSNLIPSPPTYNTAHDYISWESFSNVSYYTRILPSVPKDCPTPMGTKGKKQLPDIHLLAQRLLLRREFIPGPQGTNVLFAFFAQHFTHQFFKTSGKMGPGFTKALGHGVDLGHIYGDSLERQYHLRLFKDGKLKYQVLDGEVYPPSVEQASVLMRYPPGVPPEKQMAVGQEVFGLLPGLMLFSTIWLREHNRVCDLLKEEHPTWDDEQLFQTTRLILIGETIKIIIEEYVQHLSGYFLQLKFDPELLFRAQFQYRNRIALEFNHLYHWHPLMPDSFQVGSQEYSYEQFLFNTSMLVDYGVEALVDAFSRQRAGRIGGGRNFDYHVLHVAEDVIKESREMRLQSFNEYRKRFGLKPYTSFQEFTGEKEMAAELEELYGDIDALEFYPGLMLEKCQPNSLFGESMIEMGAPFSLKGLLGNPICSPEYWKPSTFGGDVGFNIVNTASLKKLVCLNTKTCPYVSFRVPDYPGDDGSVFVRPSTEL
Procedure: as §1, §2

For OC[C@H]1O[C@@H]2O[C@H]3[C@H](O)[C@@H](O)[C@@H](O[C@H]4[C@H](O)[C@@H](O)[C@@H](O[C@H]5[C@H](O)[C@@H](O)[C@@H](O[C@H]6[C@H](O)[C@@H](O)[C@@H](O[C@H]7[C@H](O)[C@@H](O)[C@@H](O[C@H]8[C@H](O)[C@@H](O)[C@@H](O[C@H]9[C@H](O)[C@@H](O)[C@@H](O[C@H]1[C@H](O)[C@H]2O)O[C@@H]9CO)O[C@@H]8CO)O[C@@H]7CO)O[C@@H]6CO)O[C@@H]5CO)O[C@@H]4CO)O[C@@H]3CO [IFS#11, Gamma cyclodextrin], which “COX (II), 50 μg/ml” value (COX-2; 50 μg of solids/ml) is on record?
Its value is 10.1, NS.

And the “COX (II), 200 μg/ml” value (COX-2; 200 μg of solids/ml)?
Its value is “S, NS”.

And the “COX (I), 50 μg/ml” value (COX-1; 50 μg of solids/ml)?
The value was “S, NS”.

What about the “COX (I), 200 μg/ml” value (COX-1; 200 μg of solids/ml) of the same compound?
The value was 2.3, NS.
